The record followed here is patent US20110190269A1, “GAMMA SECRETASE MODULATORS” (priority 2010, published 2011).

In this test the test system is γ-secretase. Put plainly: Cellular γ-secretase assay (inhibition of Aβ42 secretion). It counts as cell-based. The note with it: human neuroglioma H4 cells overexpressing human APP, 22 hrs incubation. The method, then: Human neuroglioma H4 cells overexpressing human APP were plated at 30,000 cells/well/[…] in 96-well plates in IMDM media containing 10% FCS, […] Hygromycin B and incubated for 2 h at 37° C., 5% CO2 prior to adding test compounds.
Compounds for testing were dissolved in 100% Me2SO yielding in a 10 mM stock solution. Typically […] of these solutions were further diluted in 1000 μl of IMDM media (w/o FCS). Subsequent 1:1 dilutions gave a ten point dose response curve. 100 μl of each dilution was added to the cells in 96-well plates. Appropriate controls using vehicle only and reference compound were applied to this assay. The final concentration of Me2S0 was 0.4%.
After incubation for 22 hrs at 37° C., 5% CO2, 50 μl supernatant was transferred into round-bottom 96-well polypropylene plates for detection of Aβ42. 50 μl assay buffer (50 mM Tris/Cl, pH 7.4, 60 mM NaCl, 0.5% BSA, 1% TWEEN 20) was added to the wells followed by the addition of 100 μl of detection antibody (ruthenylated BAP15 0.0625 μg/ml in assay buffer). 50 μl of a premix of capture antibody (biotinylated 6E10 antibody, 1 μg/ml) and Steptavidin-coated magnetic beads (Dynal M-280, 0.125 mg/ml) were preincubated for 1 hr at room temperature before adding the assay plates. Assay plates were incubated on a shaker for 3 hrs at room temperature and finally read in the Bioveris M8 Analyser according to the manufacturer's instructions (Bioveris).
IC50 values for inhibition of Aβ42 secretion were calculated by nonlinear regression fit analysis using XLfit 4.0 software (IDBS).
As usually defined, the EC50 is the concentration that produces a half-maximal response. Low values mean an effect from little substance, high ones a need for much substance. The compound `COc1cc(Nc2nc3c(Cl)cc(Cl)cn3n2)ccc1-n1cnc(C)c1` [Example 44, (6,8-Dichloro-[1,2,4]triazolo[1,5-a]pyridin-2-yl)-[3-methoxy-4-(4-methyl-imidazol-1-yl)-phenyl]-amine] returned an EC50 of 1560 nM. Next, `COc1ccccc1-c1c(C#N)cnc2nc(Nc3ccc(-n4cnc(C)c4)c(OC)c3)nn12` [Example 70, 2-(3-Methoxy-4-(4-methyl-1H-imidazol-1-yl)phenylamino)-7-(2-methoxyphenyl)-[1,2,4]triazolo[1,5-a]pyrimidine-6-carbonitrile]: 673 nM; `COc1cc(Nc2nc3cc(C)cc(C)n3n2)ccc1-n1cnc(C)c1` [Example 14, (5,7-Dimethyl-[1,2,4]triazolo[1,5-a]pyridin-2-yl)-[3-methoxy-4-(4-methyl-imidazol-1-yl)-phenyl]-amine]: 679 nM. Turning to `COc1cc(Nc2nc3c(-c4ccc(F)cc4)ccc(C(C)(C)O)n3n2)ccc1-n1cnc(C)c1` [Example 119, 2-{8-(4-Fluoro-phenyl)-2-[3-methoxy-4-(4-methyl-imidazol-1-yl)-phenylamino]-[1,2,4]triazolo[1,5-a]pyridin-5-yl}-propan-2-ol], the concentration giving a half-maximal response (EC50) amounted to 31 nM.

The compound `Cc1cc(-c2ccc(Nc3nc4c(-c5ccc(F)cc5Cl)cccn4n3)cc2)nc(C)n1` [Example 115, 8-(2-chloro-4-fluorophenyl)-N-(4-(2,6-dimethylpyrimidin-4-yl)phenyl)-[1,2,4]triazolo[1,5-a]pyridin-2-amine] returned an EC50 of 242 nM. Turning to `COc1cc(Nc2nc3ncc(C#N)c(-c4ccccc4)n3n2)ccc1-n1cnc(C)c1` [Example 37, 2-[3-Methoxy-4-(4-methyl-imidazol-1-yl)-phenylamino]-7-phenyl-[1,2,4]triazolo[1,5-a]pyrimidine-6-carbonitrile], the EC50 came to 260 nM. `COc1cc(Nc2nc3c(-c4ccc(F)cc4F)cccn3n2)ccc1-n1cnc(C)c1` [Example 132, 8-(2,4-difluorophenyl)-N-(3-methoxy-4-(4-methyl-1H-imidazol-1-yl)phenyl)-[1,2,4]triazolo[1,5-a]pyridin-2-amine] yielded an EC50 of 137 nM.

Turning to `COc1cc(Nc2nc3n(n2)CCN(C)C3c2ccc(F)cc2)ccc1-n1cnc(C)c1` (stereo not drawn) [Example 129, 8-(4-fluorophenyl)-N-(3-methoxy-4-(4-methyl-1H-imidazol-1-yl)phenyl)-7-methyl-5,6,7,8-tetrahydro-[1,2,4]triazolo[1,5-a]pyrazin-2-amine], a half-maximal effect (EC50) was put at 300 nM. This EC50 is about 2.2-fold higher than that of the compound before. Next, `COc1cc(Nc2nc3c(-c4ccc(Cl)cc4)cc(C)c(C(C)(C)O)n3n2)ccc1-n1cnc(C)c1` [Example 144, 2-{8-(4-Chloro-phenyl)-2-[3-methoxy-4-(4-methyl-imidazol-1-yl)-phenylamino]-6-methyl-[1,2,4]triazolo[1,5-a]pyridin-5-yl}-propan-2-ol]: 69 nM; `COc1cc(Nc2nc3nccc(-c4ccc(OC(F)(F)F)cc4)n3n2)ccc1-n1cnc(C)c1` [Example 23, [3-Methoxy-4-(4-methyl-imidazol-1-yl)-phenyl]-[7-(4-trifluoromethoxy-phenyl)-[1,2,4]triazolo[1,5-a]pyrimidin-2-yl]-amine acetate]: 191 nM. Next, `COc1cc(Nc2nc3c(Oc4cccc(Cl)c4)cccn3n2)ccc1-n1cnc(C)c1` [Example 137, 8-(3-chlorophenoxy)-N-(3-methoxy-4-(4-methyl-1H-imidazol-1-yl)phenyl)-[1,2,4]triazolo[1,5-a]pyridin-2-amine]: 266 nM; `COc1cc(Nc2nc3n(n2)C(c2ccc(F)cc2)CN(CC(F)(F)F)C3)ccc1-n1cnc(C)c1` (stereo not drawn) [Example 58, 5-(4-fluorophenyl)-N-(3-methoxy-4-(4-methyl-1H-imidazol-1-yl)phenyl)-7-(2,2,2-trifluoroethyl)-5,6,7,8-tetrahydro-[1,2,4]triazolo[1,5-a]pyrazin-2-amine]: 538 nM.
